Test results from ChEMBL document CHEMBL2417430, “A synthetic approach to novel carvotacetone and antheminone analogues with anti-tumour activity” (Bioorg Med Chem Lett, 2013).

Legend:
[1] = system: A549; assay: Cytotoxicity against human A549 cells after 4 days by MTT assay; type: functional, cell-based; settings: A549, 96 h
[2] = system: MCF-10A; assay: Cytotoxicity against human MCF10A cells after 4 days by MTT assay; type: cell-based; settings: 96 h

Compound | IC50 [1] | IC50 [2]
CC(C)[C@H]1CC(=O)C(CO)=C[C@@H]1O | 159 µM | –
C/C=C/C(=O)OCC1=C[C@H](O)[C@@H](C(C)C)CC1=O | 14 µM | –
C/C=C/C(=O)OCC1=C[C@H](O)[C@H](c2ccccc2)CC1=O | 8 µM | –
C/C=C/C(=O)OCC1=C[C@H](O)[C@@H](c2ccccc2)CC1=O | 1.3 µM | 1.8 µM
C/C=C/C(=O)OCC1=C[C@@H](O)CCC1=O | 16.7 µM | –
C/C=C/C(=O)OCC1=C[C@H](O)[C@@H]2C[C@@H]2C1=O | 18.1 µM | –
